Source: patent US7829524B2, “Antimicrobial peptides” (Novozymes Adenium Biotech A/S, priority 2003, dated 2010)
Read-outs that look alike come from different tables or passages of the source. Where no end group is shown, it is not given here.

Key:
[1] = test system: Escherichia coli ATCC 25922; type: cell-based
Experimental: (§1) According to the NCCLS guidelines for susceptibility test of novel antimicrobial compounds, we found a broad spectrum of activity of Cat1 (Methods for Dilution Antimicrobial Susceptibility Tests for Bacteria That Grow Aerobically; Approved Standard-Fifth Edition. NCCLS document M7-A5 (ISBN1-56238-394-9)).
(§2) In another campaign, the specific MICs of Cat1 were determined against a variety of microbial strains relevant for wound infections. As recommended in the above-mentioned NCCLS protocol, the strains were grown in cationic adjusted Muller-Hinton Broth. The highest concentration tested was 32 μg/ml.

[2] = test system: Streptococcus agalactiae ATCC 624; type: cell-based
Experimental: as §1, §2

[3] = test system: Acinetobacter baumanii ATCC 49137; type: cell-based
Experimental: as §1, §2

[4] = test system: Staphylococcus aureus (MSSA) ATCC 25923; type: cell-based
Experimental: as §1, §2

[5] = test system: Streptotoccus pyogenes ATCC 4543; type: cell-based
Experimental: as §1, §2

[6] = test system: Klebsiella pneumoniae ATCC 29995; type: cell-based
Experimental: as §1, §2

[7] = test system: Stenotrophomonas maltophilia ATCC 12714; type: cell-based
Experimental: as §1, §2

[8] = test system: Citrobacter freundii ATCC 11811; type: cell-based
Experimental: as §1, §2

[9] = test system: Staphylococcus epidermidis ATCC 12228; type: cell-based
Experimental: as §1, §2

[10] = test system: Morganella morganii ATCC 21116; type: cell-based
Experimental: as §1, §2

[11] = test system: Staphyloloccus aureus GISA ATCC 700699; type: cell-based
Experimental: as §1, §2

[12] = test system: Aerococcus viridans ATCC 700406; type: cell-based
Experimental: as §1, §2

[13] = test system: Streptococcus pneumoniae ATCC 10015; type: cell-based
Experimental: as §1, §2

[14] = test system: Bordetella bronchiseptica ATCC 14064; type: cell-based
Experimental: as §1, §2

[15] = test system: Clostridium difficile ATCC 43594; assay: NCCLS microdilution broth assay (MIC), wound infection strains; type: cell-based; conditions: Table 1; cationic adjusted Muller-Hinton Broth; highest concentration tested 32 μg/ml
Experimental: as §1, §2

[16] = test system: Eschericia coil (ATCC10536); type: cell-based, Escherichia coli
Experimental: as §1
The antimicrobial activity of the polypeptides of the invention was analyzed using the Microdilution Broth Assay (see Example 1) with Mueller Hinton Broth (MHB) media. Four different bacterial strains were tested in this setup; Micrococcus luteus (ATCC 9341), Pseudomonas aeruginosa (ATCC 27853), Escherichia coli (ATCC 10536) and Klebsiella pneumoniae (DSM681). The amino acid sequence of the polypeptides and the Minimal Inhibitory concentrations (MIC, microgram/ml) obtained is presented in Table 7 below.

[17] = test system: Pseudomonas aeroginosa (ATCC 27853); assay: Killing kinetics in MHB; type: cell-based, Pseudomonas aeruginosa; conditions: Cat1 at 4×MIC
Experimental: The rate of killing of Cat1 was determined in MHB using Pseudomonas aeroginosa (ATCC 27853) as the test organism. The bacteria were incubated with Cat1 (at 4×MIC concentration). At different time-points, several dilutions of the preparation were plated and an estimate of viable cells was determined (CFU/ml). The results in Table 3 indicate that Cat1 rapidly kills the bacteria, with a near 3-log reduction in CFU within 30 minutes.

[18] = test system: Salmonella choleraesuis (DSM9220); type: cell-based
Excerpt: as §1

[19] = test system: Klepsiella pneumoniae (ATCC10031); assay: Radial diffusion assay (MEC); type: cell-based; conditions: susceptible species
Experimental: (§3) A modified version of a previously published protocol has been applied in the detection of antimicrobial activity (Lehrer et al., (1991) Ultra sensitive assays for endogenous antimicrobial polypeptides J Immunol Methods 137: 167-173). Target bacteria (10^6 colony forming units (CFU)) were added to 10 ml of underlay agarose (1% low electro-endosmosis agarose, 0.03% Trypticase soy broth, 10 mM sodium phosphate, pH 7.4, 37 degrees Celsius). Suspension was solidified on an INTEGRID Petri Dish (Becton Dickinson Labware). A 3 mm Gel Puncher was used to make holes in the underlay agarose (Amersham Pharmacia Biotech, Sweden). Samples were added to the holes and incubated at 37 degrees Celsius, 3 hours. An overlay was poured on top and the plate was incubated overnight (LB media, 7.5% Agar). Antimicrobial activity was seen as bacterial clearing zones around the wells. Living cells was counterstained by adding 10 ml, 0.2 mM MTT (3-(4,5-Dimethylthiazol-2-yl)-2,5-diphenyltetrazolium bromide Thiazolyl blue).

[20] = test system: Enterococcus faecalis (DSM2570); assay: Radial diffusion assay (MEC); type: cell-based; conditions: susceptible species
Experimental: as §3

[21] = test system: Proteus mirabilis (ATCC7002); assay: Radial diffusion assay (MEC); type: cell-based; conditions: susceptible species
Experimental: as §3

[22] = test system: Eschericia coli (ATCC10536); assay: Radial diffusion assay (MEC); type: cell-based; conditions: susceptible species
Experimental: as §3

[23] = test system: Pseudomonas aeroginosa (ATCC27853); assay: Radial diffusion assay (MEC); type: cell-based; conditions: susceptible species
Experimental: as §3

[24] = test system: Enterococcus hirae (ATCC10541); assay: Radial diffusion assay (MEC); type: cell-based; conditions: susceptible species
Experimental: as §3

[25] = test system: Micrococcus luteus (ATCC9341); assay: Radial diffusion assay (MEC); type: cell-based; conditions: susceptible species
Experimental: as §3

[26] = test system: Bortadella bronchiseptica (ATCC4617); assay: Radial diffusion assay (MEC); type: cell-based; conditions: susceptible species
Experimental: as §3

[27] = test system: Staphylococcus aureus (ATCC29737); assay: Radial diffusion assay (MEC); type: cell-based; conditions: susceptible species
Experimental: as §3

[28] = test system: Salmonella choleraesuis (DSM9220); assay: Radial diffusion assay (MEC); type: cell-based; conditions: susceptible species
Experimental: as §3

[29] = test system: Staphylococcus epidermidis (DSM1798); assay: Radial diffusion assay (MEC); type: cell-based; conditions: susceptible species
Experimental: as §3

[30] = test system: Bacillus subtilis (ATCC6633); assay: Radial diffusion assay (MEC); type: cell-based; conditions: susceptible species
Experimental: as §3

GLLRRLRKKIGKKLKKIGQKIKPIRILVP [SEQ ID NO: 3]
MIC [1]: 1.5 µg/mL
MIC [2]: 16 µg/mL
MIC [3]: 8 µg/mL
MIC [4]: 32 µg/mL
MIC [5]: 1.5 µg/mL
MIC [6]: 8 µg/mL
MIC [7]: 1 µg/mL
MIC [8]: 1.5 µg/mL
MIC [9]: 4 µg/mL
MIC [10]: 1.5 µg/mL
MIC [11]: 32 µg/mL
MIC [12]: 0.5 µg/mL
MIC [13]: 8 µg/mL
MIC [14]: 0.5 µg/mL
MIC [15]: 32 µg/mL
MIC ([16]; ATCC10536): 8 µg/mL
MIC ([16]; susceptible strain, NCCLS guidelines): < 64 µg/mL
viable cells (CFU/ml) ([17]; 0.5 hours): 175 CFU/ml
viable cells (CFU/ml) ([17]; 1.5 hours): <20 CFU/ml
viable cells (CFU/ml) ([17]; 24 hours): <20 CFU/ml
reduction in CFU ([17]; within 30 minutes): ~3 log
MIC [18]: < 64 µg/mL
Minimal Effective Concentration (MEC) [19]: < 64 µg/mL
Minimal Effective Concentration (MEC) [20]: < 64 µg/mL
Minimal Effective Concentration (MEC) [21]: < 64 µg/mL
Minimal Effective Concentration (MEC) [22]: < 64 µg/mL
Minimal Effective Concentration (MEC) [23]: < 64 µg/mL
Minimal Effective Concentration (MEC) [24]: < 64 µg/mL
Minimal Effective Concentration (MEC) [25]: < 64 µg/mL
Minimal Effective Concentration (MEC) [26]: < 64 µg/mL
Minimal Effective Concentration (MEC) [27]: < 64 µg/mL
Minimal Effective Concentration (MEC) [28]: < 64 µg/mL
Minimal Effective Concentration (MEC) [29]: < 64 µg/mL
Minimal Effective Concentration (MEC) [30]: < 64 µg/mL
